Assay results reported in patent US8367614B2, “Rheumatoid arthritis-preventive agent for oral intake” (Calpis Co., Ltd, priority 2006, dated 2013).

Tests used:
adjuvant arthritis [1] = assay: Adjuvant arthritis in rats, arthritis score (Example 2)
adjuvant arthritis [2] = assay: Adjuvant arthritis in rats, arthritis score (Example 1 and Comparative Examples 1-3); type: in vivo, Female Lewis rats; conditions: test material 10% in 0.5% CMC, 1 ml/100 g oral once a day, average ± standard error

| Compound | Arthritis score (adjuvant arthritis [1]; Ibuprofen 0.3% in 0.5% CMC, 1 ml/100 g oral once a day, day 0) | Arthritis score (adjuvant arthritis [1]; Ibuprofen 0.3%, oral once a day, day 5) | Arthritis score (adjuvant arthritis [1]; Ibuprofen 0.3%, oral once a day, day 9) | Arthritis score (adjuvant arthritis [1]; Ibuprofen 0.3%, oral once a day, day 14) | Arthritis score (adjuvant arthritis [1]; Ibuprofen 0.3%, oral once a day, day 19) | Arthritis score (adjuvant arthritis [1]; Ibuprofen 0.3%, oral once a day, day 21) | Arthritis score (adjuvant arthritis [2]; day 0 to 21, day 0, max 12 points) | Arthritis score (adjuvant arthritis [2]; day 5) | Arthritis score (adjuvant arthritis [2]; day 9) | Arthritis score (adjuvant arthritis [2]; day 14) | Arthritis score (adjuvant arthritis [2]; day 19) | Arthritis score (adjuvant arthritis [2]; day 22) |
| --- | --- | --- | --- | --- | --- | --- | --- | --- | --- | --- | --- | --- |
| CC(C)Cc1ccc(C(C)C(=O)O)cc1 (stereo not drawn) [Ibuprofen] | 0 | 0 | 0.1 ± 0.1 | 6.5 ± 0.6 | 9.0 ± 0.5 | 9.5 ± 0.3 |  |  |  |  |  |  |
| sodium caseinate [Comp. Ex. 2] |  |  |  |  |  |  | 0.00 | 0.00 | 1.25 ± 0.37 | 8.25 ± 0.62 | 10.50 ± 0.33 | 10.38 ± 0.32 |
